Nc1nc(Cl)cc(Cl)n1
solubility (mole fraction)
Conditions | in 1,4-dioxane | in acetone | in acetonitrile | in cyclohexane | in ethanol | in ethyl acetate | in isopropanol | in methanol | in n-propanol | in toluene
278.15 K | – | 0.00538 | 0.00128 | – | 0.000929 | 0.00458 | 0.000517 | 0.00113 | 0.000792 | 0.000551
283.15 K | – | 0.00618 | 0.00155 | 4.26e-05 | 0.00111 | 0.00535 | 0.000645 | 0.00132 | 0.00095 | 0.000695
288.15 K | 0.0122 | 0.0073 | 0.00186 | 5.55e-05 | 0.00132 | 0.00631 | 0.000808 | 0.00158 | 0.00113 | 0.000856
293.15 K | 0.0139 | 0.00848 | 0.00223 | 7.15e-05 | 0.00158 | 0.0073 | 0.000989 | 0.00183 | 0.00136 | 0.00105
298.15 K | 0.016 | 0.0097 | 0.00265 | 9.05e-05 | 0.00183 | 0.00847 | 0.00121 | 0.00218 | 0.00163 | 0.00128
303.15 K | 0.0182 | 0.011 | 0.00314 | 0.000115 | 0.00215 | 0.00981 | 0.00148 | 0.00251 | 0.00192 | 0.00156
308.15 K | 0.0205 | 0.0126 | 0.0037 | 0.000144 | 0.00251 | 0.0113 | 0.00178 | 0.00293 | 0.00226 | 0.00188
313.15 K | 0.0233 | 0.0143 | 0.00434 | 0.000181 | 0.00293 | 0.0129 | 0.00215 | 0.00335 | 0.00265 | 0.00228
318.15 K | 0.0262 | 0.0163 | 0.00505 | 0.000224 | 0.00339 | 0.0147 | 0.00257 | 0.00389 | 0.00313 | 0.00274

— BigSolDB 2.1
